Earlier results on 2 compounds are cited in patent publication US20050169894A1, “Compositions and methods for ex vivo preservation of blood vessels for vascular grafts using inhibitors of Type III and/or Type IV phosphodiesterases” (priority 2003, published 2005).

The subject of one data set is endothelial cells. As to conditions: stated as known; about 4 mM.
Data set [1] deals with Type IV phosphodiesterase. The conditions noted are these: at high concentrations; Lugnier and Komas, 1993.
Another data set concerns the target Type V phosphodiesterase (Homo sapiens, UniProt O76074). The conditions noted are these: at high concentrations; Lugnier and Komas, 1993.

Molecules are shown by their SMILES.

On to `CCCC(=O)Nc1ncnc2c1ncn2[C@@H]1O[C@@H]2COP(=O)(O)O[C@H]2[C@H]1OC(=O)CCC` [db cAMP, dibutyryl adenosine 3′,5′-cyclic monophosphate], for which the “concentration toxic to endothelial cells” value in the data set with endothelial cells is “higher than 4 mM”. As for `Cc1[nH]c(=O)c(C#N)cc1-c1ccncc1` [milrinone, Milrinone], in data set [1], the “inhibition of Type IV phosphodiesterase activity” value was “inhibits”. Also, at Type V phosphodiesterase, the “inhibition of Type V phosphodiesterase activity” value is listed as “inhibits”.
